Experimental data published in PMC2192852 (The Journal of Experimental Medicine, 1996).
Where no end group is shown, it is not given here. [ ]: non-standard residue; d: D form. Abu = CC[C@H](N)C(=O)O

Experiments:
Assay type in all cases: cell-based
CH27 B cell lymphoma = details: for Induction of apoptosis of CH27: Fig. 5, 3.L2 clone, 24 h; for Relative Activity (Hb(64-76) arbitrarily assigned 100): Fig. 4, from EC40 in apoptosis assay relative to wild-type peptide
3.L2 TCR [1] = details: Fig. 3; CH27 prepulsed with 0.1 µM Hb(64-76)
3.L2 TCR [2] = experiment: T cell hybridoma agonist assay: IL-2 production by the 3.L2.12 hybridoma; details: Fig. 6, single agonist assay, representative of at least three experiments

Row | Substance | Induction of apoptosis of CH27 (CH27 B cell lymphoma) | Relative Activity (Hb(64-76) arbitrarily assigned 100) (CH27 B cell lymphoma) | also measured
1 | GKKVITAFGEGLK [G72] | did not induce any apoptosis |  | 
2 | GKKVITAF[Abu]EGLK [Abu72] |  | 5 | 
3 | GKKVITAFSEGLK [$72] | did not induce any apoptosis |  | 
4 | GKKVITAFLEGLK [L72] | did not induce any apoptosis |  | 
5 | GKKVITAFTEGLK [T72] |  | 2 | 
6 | GKKVITAFYEGLK [Y72] |  |  | Concentration at which slight inhibition of the 3.L2.12 response was seen (3.L2 TCR [1]): > 100 µM
7 | GKKVITAFNEGLK [Hb(64-76), reference compound] |  | 100 | Concentration at which peptide is active (IL-2 production) (3.L2 TCR [2]): 0.01 µM
8 | GKKVITAFVEGLK [V72] |  | 2 | 
9 | GKKVITAFCEGLK [C72] |  | 2 | 
10 | GKKVITAFMEGLK [M72] |  |  | Concentration at which slight inhibition of the 3.L2.12 response was seen (3.L2 TCR [1]): > 100 µM
11 | GKKVITAFDEGLK [D72] |  |  | Concentration at which slight inhibition of the 3.L2.12 response was seen (3.L2 TCR [1]): > 100 µM
12 | GKKVITAFEEGLK [E72] | negative |  | 
